The text below walks through data of paper PMC6273344, “Biochemical Characteristics of Three Laccase Isoforms from the Basidiomycete Pleurotus nebrodensis” (Molecules, 2015).

Counter-ions that a name gives are not always drawn.

Test systems include Lac3; Lac1; Lac2.
Settings in all cases: McIlvaine buffer at optimum pH (3.0); ABTS 125-5000 uM; O2 as co-substrate

On to `CCn1c(=NN=c2sc3cc(S(=O)(=O)O)ccc3n2CC)sc2cc(S(=O)(=O)O)ccc21` [ABTS, 2,2′-azino-bis(3-ethylbenzothiazoline-6-sulfonic acid) diammonium salt], for which the Michaelis constant (Km) turned out to be 104 µM with Lac3, 160 µM in the experiment on Lac1 and 550 µM with Lac2.
